US7968139B2, “Packaged beverages” (Kao Corporation, priority 2000, dated 2011)

Tests used:
[1] = tested on: PPAR-dependent gene transcription in small intestine epithelial cell line IEC-6; assay: Test on PPAR-dependent gene transcription activation (PPAR-Luc reporter), IEC-6; assay type: cell-based; details: IEC-6, test concentration 10 μM, 24 hours
Protocol: (§1) The small intestine epithelial cell line IEC-6 and human hepatic cell line HepG2 were inoculated on a 12 well plate and cultured in DMEM (5% FCS) for 24 hours. A DNA chain containing PPAR responsive element (underlined portion) ([…]), a SV40 promoter gene, a PPAR reporter plasmid (PPAR-Luc) containing firefly luciferase gene, and a control plasmid having thymidine kinase promoter gene linked on the upstream of renilla luciferase gene were introduced simultaneously by using a transfection reagent (“Superfect transfection reagent”, product of Promega Corporation) each in an amount of 0.5 μg/well. The culture broth was then replaced with a DMEM (—FCS) medium containing a test substance, followed by incubation for further 24 hours. After washing with PBS, the cells were lysed using dual luciferase assay system (product of Promega Corporation). To the resulting lysate, a substrate solution containing luciferin was added and firefly and renilla luciferase activities were measured by a luminometer. In this test system, a PPAR-dependent gene transcriptional activator was searched for by measuring the transcriptional activity (luciferase activity of PPAR-dependent gene. It is to be noted that the PPAR-dependent gene transcriptional activity (luciferase activity) was defined as described below. PPAR-dependent gene transcriptional activity (luciferase activity)=(firefly luciferase activity by PPAR-Luc)/(renilla luciferase activity by TK-Luc)
(§2) In Table 8, PPAR-dependent gene transcription activating capacity of each test substance in IEC-6 and HepG2 cell lines is shown. In this table, PPAR-dependent transcriptional activity by the control is set at 100 and activity relative to it is indicated. As a positive control, fenofibrate was employed.

[2] = tested on: PPAR-dependent gene transcription in human hepatic cell line HepG2; assay: Test on PPAR-dependent gene transcription activation (PPAR-Luc reporter), HepG2; assay type: cell-based; details: HepG2, test concentration 10 μM, 24 hours
Protocol: as §1, §2

Molecule	PPAR-dependent transcriptional activity (luciferase activity) relative to control set at 100 [1]	PPAR-dependent transcriptional activity (luciferase activity) relative to control set at 100 [2]
Oc1cc(O)c2c(c1)O[C@H](c1ccc(O)c(O)c1)[C@H](O)C2 [Epicatechin]	158	150
Catechin	152	149
O=C(O[C@@H]1Cc2c(O)cc(O)cc2O[C@@H]1c1cc(O)c(O)c(O)c1)c1cc(O)c(O)c(O)c1 [Epigallocatechin gallate]	184	172
O=C(O[C@@H]1Cc2c(O)cc(O)cc2O[C@@H]1c1ccc(O)c(O)c1)c1cc(O)c(O)c(O)c1 [Epicatechin gallate]	178	166
